Patent US7045550B2, “Polyamines and analogs for protecting cells during cancer chemotherapy and radiotherapy” (Wisconsin Alumni Research Foundation, priority 2001, dated 2006)

Columns and labels:
[1] = tested on: rat pups challenged with cytoxan; test: Cytoxan (CTX)-induced alopecia model in rat pups, topical polyamine effector; format: in vivo, Sprague Dawley rat; details: for efficacy in the rat alopecia and/or dermatitis model: Examples 6, 7 and 8
Procedure: (§1) Induction of alopecia by cytoxan (CTX). Lactating Sprague Dawley mother rats with rat pups were purchased from Harlan Sprague Dawley (Indianapolis, Ind.). The mother rats were given food and water ad libitum. The rats pups were tested in the model of chemotherapy-induced alopecia described by Hussein A. M. et al., Science: 249, 1564 (1990). Cytoxan (CTX), a chemotherapeutic widely used in the treatment of cancer, was used to induce alopecia in the rats. A common side effect of cytoxan in patients is alopecia. Cytoxan and polyamine effector compounds were purchased from Sigma Chemicals Co. (St. Louis, Mo.). To produce CTX-induced alopecia, 7 to 10 day old rat pups were injected i.p. with 35 mg/kg of CTX prepared in phosphate-buffered saline. To produce reproducible CTX induced alopecia, we first tested several concentrations (35, 40, 45 ug/gm body weight) of CTX in phosphate-buffered saline (PBS), which was injected i.p. in 7–10 day old pups. Seven to ten days after CTX treatment the pups were examined to determine the degree of hair loss. The density of hair on the pups was then determined. 100% hair density represents that found on the untreated control pups while 0% represented pups with total hair loss. It was observed that 35 ug/gm of CTX was sufficient to induce 100% hair loss approximately 7 days after cytoxan challenge, and this concentration was used in subsequent experiments.
Different types of polyamine effector agents were tested in this model. The effectors were prepared in a delivery vehicle, consisting of from 60–100% ethanol in water, depending on the solubility of the compound. The compounds in ethanol/water solution from 50–150 μl in volume were topically administered to the backs of the pups once per day before and after CTX challenge. Using a micropipette, the formulation was applied to approximately 2 cm^2 section of skin to the backs of the rat pups. Specifically, the pups were treated once daily for the 4–5 days before CTX challenge, once on the day of CTX challenge and once daily for 5 days afterwards. Control groups consisted of pups receiving only delivery vehicle. Control groups treated with delivery vehicle were tested as part of every treatment study. Two or more animals were tested per group in both the control and test groups.
Approximately 7 to 10 days after CTX treatment, the pups were evaluated for alopecia. Hair loss was evaluated using a modified alopecia-scoring index described by Chen G. et al., Int. J. Cancer: 75, 303 (1998). A score of 0=no hair loss; a score of 1=10–30% hair loss; a score of 2=40–60% hair loss; a score of 3=70–90% hair loss; and a score of 4=100% hair loss.
as §1, with “It was observed that 35 ug/gm of CTX was sufficient to induce 100% hair loss approximately 7 days after cytoxan challenge, and this concentration was used in subsequent experiments.” left out

[2] = tested on: rats exposed to radiation; test: Radiation-induced dermatitis model in rats (15 Gy), topical polyamine effector; format: in vivo, Sprague Dawley rat; details: for Avg dermatitis score: 15 Gy, vehicle 3.0
Procedure: To determine if treatment with a polyamine effector could effectively prevent radiation-induced dermatitis, adult rats were topically treated with several different classes of polyamine effectors before and after radiation treatment. Rats were exposed to medically relevant levels of radiation that could induce clinical radiation dermatitis. Sprague Dawley rats (Harlen Spraque Dawley) at 4–6 weeks-old were anesthetized with sodium pentobarbital at 40 mg/kg body weight (Sigma, St. Louis, Mo.) prior to radiation exposure. A defined, depilated area on the backs of rats was irradiated using a Mark I, Model 30, Cs 137 irradiator (J. L. Sheppard & Associates). Briefly, the back was stripped of hair to expose the skin using a 1:1 rosin/beeswax mixture. The rest of the body was protected from radiation exposure using a lead shield. A dose response study was initially preformed to reproduce relevant dermatitis that matched the Grade (I–IV) scale used to score the severity of radiation-induced dermatitis in the clinical setting. Radiation doses of 5–7 Gray (1 Gray (Gy)=[…]) produced Grade I dermatitis within 8–10 days. Radiation doses of 7–10 Gy produced Grade II dermatitis within 8–10 days. After 8–10 days, severe radiation dermatitis was produced at 20–25 Gy (Grade III dermatitis) or at 30–35 Gy (Grade IV). Radiation dermatitis of Grade II–III was considered most clinically relevant, so a radiation challenge dose of 15 Gy in the rats was used in subsequent treatment experiments. The stripped back region on the rats was treated topically with 10–50 mM polyamine effector once daily for 5 days before and 5 days after radiation challenge.
Different classes (natural polyamines and biosynthetic inhibitors) of polyamine effector agents were tested in this model. The polyamine effector compounds were purchased from Sigma Chemicals Co. (St. Louis, Mo.), except Vaniqa, a commercially available cream containing DFMO at 13.9% ([…]). The effectors were prepared in a delivery vehicle, consisting of from 60–100% ethanol in water, depending on the solubility of the compound. The compounds in ethanol/water solution from 100–150 μl in volume were topically administered to the stripped region. Rats treated with only the delivery vehicle served as controls. Eight to ten days post-radiation challenge, the rats were evaluated for dermatitis using a modified scoring scale described by Masuda K. et al. Int. J. Radiation Oncol. Biol. Phys: 12, 1645 (1986). Dermatitis score of 0=normal, 1=slight redness, scaly skin with no focal lesions, 2=moderate redness, breakdown of larger area, some small focal lesions, 3=skin very red, breakdown of most of the irradiated area, large ulcers and crusty lesions, 4=skin very red, breakdown of the entire irradiated area, severe exudation and large crusty lesions.
To determine if treatment with a non-natural polyamine analog could effectively prevent radiation-induced dermatitis, adult rats were topically treated with a polyamine analog before and after radiation treatment. Rats were exposed to medically relevant levels of radiation that could induce clinical radiation dermatitis. Sprague Dawley rats (Harlan Spraque Dawley) at 4–6 weeks old were anesthetized with sodium pentobarbital at 40 mg/kg body weight (Sigma, St. Louis, Mo.) prior to radiation exposure. A defined, depilated area on the backs of rats was irradiated using a Mark I, Model 30, Cs 137 irradiator (J. L. Sheppard & Associates). Briefly, back hair was removed to expose the skin by using Oster electric clippers followed by a safety razor. The rest of the body was protected from radiation exposure using a lead shield. A dose response study was initially preformed to reproduce relevant dermatitis that matched the Grade (I–IV) scale used to score the severity of radiation-induced dermatitis in the clinical setting. Radiation doses of 5–7 Gray (1 Gray (Gy)=[…]) produced Grade I dermatitis within 8–10 days. […]

DNA = details: in vitro; Basu et al. 1993; cited from earlier work
[3] = tested on: rat pups challenged with cytarbine; test: Cytarbine-induced alopecia model in rat pups; format: in vivo; details: treatment (1 mM), vehicle 4.0
From the text: (§2) Alopecia was induced in rat pups by Cytoxan, cytarbine, doxorubicin and radiation, according to the methods described in the previous examples. Polyamines from three different structural families, obtained from two different sources, gave excellent results in animal alopecia models for Cytoxan, cytarbine and doxorubicin.

[4] = tested on: rat pups challenged with doxorubicin; test: Doxorubicin-induced alopecia model in rat pups; format: in vivo; details: vehicle 4.0
From the text: as §2

[5] = 10 mM topical, scale 0-4, vehicle 4.0
[6] = 50 mM topical, scale 0-4, vehicle 4.0
[7] = 50 mM in ethanol/water, scale 0-4
[8] = 20 mM topical, scale 0-4, vehicle 4.0
[9] = 5 mM topical (Example 1), scale 0-4, vehicle 4.0
[10] = Example 6, 5 mM in 70% ethanol, topical, scale 0-4, vehicle 4.0
[11] = 10 mM in ethanol/water, scale 0-4
[12] = 1 mM topical (Example 1), scale 0-4, vehicle 4.0
[13] = Example 1, concentrations tested

For `NCCCCNCCCN` [Spermidine], the “Avg Alopecia Score” value [1, 5] was 2.0 and the “Avg Alopecia Score” value [1, 6] was 3.5.
In the case of `CNCCCNCC#CCNCCCNC` [SL-11092], the “efficacy in the rat alopecia and/or dermatitis model” value (“efficacy” below) ([1]; 5 mM) is reported as “showed efficacy”, the “Avg Alopecia Score” value ([1]; Table 10, treatment (1 mM), vehicle 4.0) is reported as 0.0 and the “Avg Alopecia Score” value ([1]; Table 15, cytoxan-induced, re-screening summary) is reported as 0.0.
In the case of `NCCCNCCCCNCCCN` [Spermine], the Avg dermatitis score [2, 7] is reported as 2.8, the “Avg Alopecia Score” value [1, 8] is reported as 3.0 and the “Avg Alopecia Score” value [1, 6] is reported as 2.0. The “Avg Alopecia Score” value ([1]; 100 mM topical once daily in ethanol/water, scale 0 (no hair loss) to 4 (100% hair loss), vehicle 4.0) was 0.0.
For `CCNCCCCNCCCCNCCCCNCC` [BE-4-4-4, 1N,14N-Bisethylhomospermine], the “DNA binding and aggregation” value (DNA) is given as “binds to DNA in vitro but does not aggregate it”.
In the case of `CCNCCCCNCCCCNCCCCNCCCCNCC` [BE-4-4-4-4, 3,8,13,18,23-Pentaazapentacosane], the “DNA binding and aggregation” value (DNA) is given as “both binds DNA and aggregates it”.
With `NCCCCCN` [Cadaverine] the “Avg Alopecia Score” value [1, 9] was 4.0 and the “Avg Alopecia Score” value [1, 6] was 2.5.
For `CCNCCCCNCCCCNCCCCNCCCCNCCO` [SL-11141], the “efficacy” value ([1]; 5 mM) was “showed efficacy”, the “effectiveness at preventing alopecia after CTX treatment” value ([1]; Example 6, 5 mM) was “less effective” and the “Avg Alopecia Score” value [1, 10] was 3.3.
In the case of `N=C(N)NCCCCN` [Agmatine], the Avg dermatitis score [2, 11] is reported as 1.8, the Avg dermatitis score ([2]; 20 mM in ethanol/water, scale 0 (normal) to 4) is reported as 2.0 and the “Avg Alopecia Score” value [1, 12] is reported as 3.0. The “Avg Alopecia Score” value [1, 5] was 3.0 and the “effect on CTX-induced alopecia” value [1, 13] was “reduced, but did not prevent alopecia”.
In the case of `NC(=NCCC[C@H](N)C(=O)O)NO` [NOHA, NG-hydroxy-arginine], the “Avg Alopecia Score” value [1, 9] is reported as 2.75.
In the case of `CCNCCCNCC1CC1CNCCCNCC` (stereo not drawn) [SL-11038], the “efficacy” value ([1]; 5 mM) is reported as “showed efficacy” and the “Avg Alopecia Score” value [1, 10] is reported as 3.5.
For `Cl.NCCC[C@](N)(C(=O)O)C(F)F` (racemic) [DFMO, DL-Alpha Difluoromethylornithine HCl, reference compound], the Avg dermatitis score [2, 11] was 2.5, the “Avg Alopecia Score” value [1, 12] was 4.0 and the “Avg Alopecia Score” value [1, 9] was 2.0. For the same molecule, the “Avg Alopecia Score” value [1, 5] was 2.0, the “Avg Alopecia Score” value [1, 8] was 3.5 and the “effect on CTX-induced alopecia” value ([1]; Example 1, 5–10 mM) was “effectively prevented alopecia”.
In the case of `NCCCNCCSP(=O)(O)O` [amifostine, S-2-(3-aminopropylamino) ethylphoshorothioic acid, reference compound], the “radioprotective activity” value ([2]; radiation-induced dermatitis assay, as compared with putrescine) is reported as “good radioprotective activity”.
For `C[C@](N)(CCCN)C(=O)O` [Alpha-Methyl ornithine, reference compound], the “Avg Alopecia Score” value [1, 9] was 4.0, the “Avg Alopecia Score” value [1, 8] was 4.0 and the “effect on CTX-induced alopecia” value [1, 13] was “did not prevent hair loss”.
With `CCNCCCCNCCCCNCCCCNCCCCNC/C=C/CNCCCCNCCCCNCCCCNCCCCNCC` [SL-11144] the “Avg Alopecia Scores” value [3] was 3.0, the “activity in both the alopecia and dermatitis models” value ([1]; 5 mM, versus naturally-occurring polyamines or simple polyamine analogs) was “overall greater activity” and the “Avg Alopecia Score” value [4] was 0.0.
For `CCNCCCCNCC#CCNCCCCNCC` [SL-11103], the “efficacy” value ([1]; 5 mM) was “showed efficacy”.
With `NCCCCN` [Putrescine] the Avg dermatitis score [2, 7] was 3.0, the “Avg Alopecia Score” value ([1]; 2 mM topical, scale 0-4, vehicle 4.0) was 3.0 and the “Avg Alopecia Score” value [1, 9] was 2.5. The “Avg Alopecia Score” value [1, 5] was 2.0 and the “Avg Alopecia Score” value [1, 6] was 1.5.
For `CCNCCCNCC#CCNCCCNCC` [SL-11091], the “Avg Alopecia Score” value [1, 10] was 3.0.
With `NCCCNCCCN` [Norspermidine] the “Avg Alopecia Score” value [1, 9] was 4.0 and the “Avg Alopecia Score” value [1, 6] was 2.0.
In the case of `CCNCCCNCC1CCC1CNCCCNCC` (stereo not drawn) [SL-11044], the “Avg Alopecia Score” value [1, 10] is reported as 2.5.
For `CCNCCCNCCCNCCCNCC` [BE-3-3-3, N1, N11-bis (ethyl) norspermine], the “Avg Alopecia Score” value [1, 12] was 2.7, the “Avg Alopecia Score” value [1, 9] was 2.3 and the “Avg Alopecia Score” value [1, 8] was 1.7. The “Alopecia Score +/- SEM” value ([1]; Expt. 1, 1 mM, vehicle 4.0 +/- 0.0) was 3.5 +/− 0.7, the “Alopecia Score +/- SEM” value ([1]; Expt. 1, 10 mM, vehicle 4.0 +/- 0.0) was 1.5 +/− 0.7 and the “Alopecia Score +/- SEM” value ([1]; Expt. 2, 1 mM, vehicle 3.5 +/- 0.7) was 2.5 +/− 0.3. The “Alopecia Score +/- SEM” value ([1]; Expt. 2, 10 mM, vehicle 3.5 +/- 0.7) was 0.25 +/− 0.3, the “Alopecia Score +/- SEM” value ([1]; Expt. 3, 1 mM, vehicle 4.0 +/- 0.0) was 2.7 +/− 0.4 and the “Alopecia Score +/- SEM” value ([1]; Expt. 3, 10 mM, vehicle 4.0 +/- 0.0) was 2.0 +/− 0.3. The “Avg Alopecia Score” value ([1]; Table 15, several data sets at multiple concentrations) was 0.3–1.5.
